According to patent US20250376445A1, “COMPOUNDS AND METHODS FOR YAP/TEAD MODULATION AND INDICATIONS THEREFOR” (OPNA BIO SA, priority 2023, published 2025):

Test system: TEAD-dependent transcription
Assay: TEAD-dependent transcription cell-based reporter assay (MSTO-211H+12XGTIIC luciferase)
Parameters: species or system human
Details: Homo sapiens; MSTO-211H+12XGTIIC reporter cells, 24 hours compound incubation, luminescence normalized to viability; read-out: MSTO-211H GMean IC50 (uM) Cell Assay Reporter Cell Variant: TEAD
Excerpt: The human mesothelioma cell line MSTO-211H was stably transfected with a pGL4.21 plasmid containing a synthetic promoter with 12 copies of the GTIIC TEAD response element that drives the expression of a luciferase reporter gene^1 using Lipofectamine transfection reagent (Thermo Fisher). Transfected cells were selected using puromycin and single cell clones expressing this construct (referred to as MSTO-211H+12XGTIIC) were generated by limiting dilution. MSTO-211H cells was characterized by genetic alterations in key components of the Hippo pathway^2, resulting in up-regulation of YAP/TEAD-mediated transcription. […] To evaluate TEAD inhibitors, the MSTO-211H+12XGTIIC cell line was seeded in a 96-well plate in 50 μL of culture media at 1×10^4 cells per well and incubated at 37° C. overnight. Serial dilutions of compounds (in total volume of 50 μL of culture media) were added to the cells and incubated at 37° C. for 24 hours. Each plate included cells treated with DMSO as high controls and cells treated with 20 μM of the reference compound K-975 (a known TEAD inhibitor)^3 as low controls. Cell viability was assayed by the addition of 25 μL of CellTiter-Fluor reagent (Promega) followed by a 30-minute incubation at 37° C. and quantification of the fluorescence signal (Ex400/Em505). Subsequently, luciferase expression was assayed by the addition of 25 μL of ONE-Glo reagent (Promega) followed by a 10-minute incubation at room temperature and quantification of the luminescence signal. The luminescence signal was normalized to the fluorescence signal to correct for any loss in cell viability over the 24-hour compound incubation period. The percentage of inhibition of normalized luminescence signal, indicative of compound-mediated inhibition of TEAD-dependent transcription, at individual compound concentrations relative to high and low controls was calculated. The data were analyzed by using nonlinear regression to generate IC50 values for individual compounds.

Compound | IC50
O=C(c1c[nH]c(C(F)(F)F)n1)N1CCc2ccc(-c3ccc(C(F)(F)F)cc3)cc2C1 [O-0188, (2-(trifluoromethyl)-1H-imidazol-4-yl)(7-(4-(trifluoromethyl)phenyl)-3,4-dihydroisoquinolin-2(1H)-yl)methanone] | 10 to 100 µM
CS(=O)(=O)c1nc(C(=O)N2CCc3ccc(-c4ccc(C(F)(F)F)cc4)cc3C2)c[nH]1 [O-0189, (2-(methylsulfonyl)-1H-imidazol-4-yl)(7-(4-(trifluoromethyl)phenyl)-3,4-dihydroisoquinolin-2(1H)-yl)methanone] | 0.001 to 10 µM
CS(=O)(=O)c1nc(C(=O)N2CCc3cc(-c4ccc(C(F)(F)F)cc4)ccc3C2)c[nH]1 [O-0190, (2-(methylsulfonyl)-1H-imidazol-4-yl)(6-(4-(trifluoromethyl)phenyl)-3,4-dihydroisoquinolin-2(1H)-yl)methanone] | 0.001 to 10 µM
O=C(c1c[nH]c(C(F)(F)F)n1)N1CCc2cc(-c3ccc(C(F)(F)F)cc3)ccc2C1 [O-0191, (2-(trifluoromethyl)-1H-imidazol-4-yl)(6-(4-(trifluoromethyl)phenyl)-3,4-dihydroisoquinolin-2(1H)-yl)methanone] | 0.001 to 10 µM
O=C(c1c[nH]c(C(F)(F)F)n1)N1CCc2c(cccc2-c2ccc(C(F)(F)F)cc2)C1 [O-0192, (2-(trifluoromethyl)-1H-imidazol-4-yl)(5-(4-(trifluoromethyl)phenyl)-3,4-dihydroisoquinolin-2(1H)-yl)methanone] | > 100 µM
CS(=O)(=O)c1nc(C(=O)N2CCc3c(cccc3-c3ccc(C(F)(F)F)cc3)C2)c[nH]1 [O-0193, (2-(methylsulfonyl)-1H-imidazol-4-yl)(5-(4-(trifluoromethyl)phenyl)-3,4-dihydroisoquinolin-2(1H)-yl)methanone] | 10 to 100 µM
C[C@H](N)C(=O)N1CCc2c(cccc2-c2ccc(C(F)(F)F)cc2)C1 [O-0194, (S)-2-amino-1-(5-(4-(trifluoromethyl)phenyl)-3,4-dihydroisoquinolin-2(1H)-yl)propan-1-one] | 0.001 to 10 µM
C[C@H](NC(=O)OC(C)(C)C)C(=O)N1CCc2c(cccc2-c2ccc(C(F)(F)F)cc2)C1 [O-0195, tert-butyl (S)-(1-oxo-1-(5-(4-(trifluoromethyl)phenyl)-3,4-dihydroisoquinolin-2(1H)-yl)propan-2-yl)carbamate] | > 100 µM
C[C@@H](NC(=O)OC(C)(C)C)C(=O)N1CCc2c(cccc2-c2ccc(C(F)(F)F)cc2)C1 [O-0196, tert-butyl (R)-(1-oxo-1-(5-(4-(trifluoromethyl)phenyl)-3,4-dihydroisoquinolin-2(1H)-yl)propan-2-yl)carbamate] | > 100 µM
